Test results as given in ChEMBL document CHEMBL1124853, “Synthesis and antiallergy activity of N-[2-(dimethylamino)ethyl]-4-aryl-1-piperazinecarboxamide derivatives” (1990).

Key:
[1] = system: Rattus norvegicus; assay: Oral antiallergic activity in rat passive foot anaphylaxis (PFA) assay as percent change in volume of foot edema at a dose 31.6 mg/kg compared to -62% of aminophylline at 100 mg/kg; assay type: functional
[2] = system: Rattus norvegicus; assay: Oral antiallergic activity in rat passive foot anaphylaxis (PFA) assay as percent change in volume of foot edema at a dose 31.6 mg/kg compared to -65% of aminophylline at 100 mg/kg; assay type: functional
[3] = system: Rattus norvegicus; assay: Oral antiallergic activity in rat passive foot anaphylaxis (PFA) assay as percent change in volume of foot edema at a dose 10 mg/kg compared to -69% of aminophylline at 100 mg/kg; assay type: functional
[4] = system: Rattus norvegicus; assay: Oral antiallergic activity in rat passive foot anaphylaxis (PFA) assay as percent change in volume of foot edema at a dose 31.6 mg/kg compared to -78% of aminophylline at 100 mg/kg; assay type: functional
[5] = system: Rattus norvegicus; assay: Oral antiallergic activity in rat passive foot anaphylaxis (PFA) assay as percent change in volume of foot edema at a dose 31.6 mg/kg compared to -73% of aminophylline at 100 mg/kg; assay type: functional
[6] = system: Rattus norvegicus; assay: Oral antiallergic activity in rat passive foot anaphylaxis (PFA) assay as percent change in volume of foot edema at a dose 31.6 mg/kg compared to -74% of aminophylline at 100 mg/kg; assay type: functional
[7] = system: Rattus norvegicus; assay: Oral antiallergic activity in rat passive foot anaphylaxis (PFA) assay as percent change in volume of foot edema at a dose 31.6 mg/kg compared to -50% of aminophylline at 100 mg/kg; assay type: functional
[8] = system: Rattus norvegicus; assay: Oral antiallergic activity in rat passive foot anaphylaxis (PFA) assay as percent change in volume of foot edema at a dose 31.6 mg/kg compared to -66% of aminophylline at 100 mg/kg; assay type: functional
[9] = system: Rattus norvegicus; assay: Oral antiallergic activity in rat passive foot anaphylaxis (PFA) assay as percent change in volume of foot edema at a dose 31.6 mg/kg compared to -58% of aminophylline at 100 mg/kg; assay type: functional
[10] = system: Rattus norvegicus; assay: Oral antiallergic activity in rat passive foot anaphylaxis (PFA) assay as percent change in volume of foot edema at a dose 31.6 mg/kg compared to -61% of aminophylline at 100 mg/kg; assay type: functional
[11] = system: Cavia porcellus; assay: Oral antiallergic activity in the Guinea Pig Anaphylaxis (GPA) at the dose of 31.6 mg/kg; 4 guinea pigs were challenged with the antigen
[12] = system: Rattus norvegicus; assay: Oral antiallergic activity in rat passive foot anaphylaxis (PFA) assay as percent change in volume of foot edema at a dose 31.6 mg/kg compared to -68% of aminophylline at 100 mg/kg; assay type: functional
[13] = system: Rattus norvegicus; assay: Oral antiallergic activity in rat passive foot anaphylaxis (PFA) assay as percent change in volume of foot edema at a dose 10 mg/kg compared to -62% of aminophylline at 100 mg/kg; assay type: functional
[14] = system: Rattus norvegicus; assay: Oral antiallergic activity in rat passive foot anaphylaxis (PFA) assay as percent change in volume of foot edema at a dose 31.6 mg/kg compared to -81% of aminophylline at 100 mg/kg; assay type: functional
[15] = system: Rattus norvegicus; assay: Oral antiallergic activity in rat passive foot anaphylaxis (PFA) assay as percent change in volume of foot edema at a dose 31.6 mg/kg compared to -63% of aminophylline at 100 mg/kg; assay type: functional
[16] = system: Rattus norvegicus; assay: Oral antiallergic activity in rat passive foot anaphylaxis (PFA) assay as percent change in volume of foot edema at a dose 31.6 mg/kg compared to -71% of aminophylline at 100 mg/kg; assay type: functional
[17] = system: Rattus norvegicus; assay: Oral antiallergic activity in rat passive foot anaphylaxis (PFA) assay as percent change in volume of foot edema at a dose 10 mg/kg compared to -77% of aminophylline at 100 mg/kg; assay type: functional
[18] = system: Rattus norvegicus; assay: Oral antiallergic activity in rat passive foot anaphylaxis (PFA) assay as percent change in volume of foot edema at a dose 31.6 mg/kg compared to -67% of aminophylline at 100 mg/kg; assay type: functional
[19] = system: Rattus norvegicus; assay: Oral antiallergic activity in rat passive foot anaphylaxis (PFA) assay as percent change in volume of foot edema at a dose 10 mg/kg compared to -76% of aminophylline at 100 mg/kg; assay type: functional
[20] = system: Cavia porcellus; assay: Oral antiallergic activity in the Guinea Pig Anaphylaxis (GPA) at the dose of 10 mg/kg; 4 guinea pigs were challenged with the antigen
[21] = system: Rattus norvegicus; assay: Oral antiallergic activity in rat passive foot anaphylaxis (PFA) assay as percent change in volume of foot edema at a dose 3.16 mg/kg compared to -84% of aminophylline at 100 mg/kg
[22] = system: Rattus norvegicus; assay: Oral antiallergic activity in rat passive foot anaphylaxis (PFA) assay as percent change in volume of foot edema at a dose 31.6 mg/kg compared to -69% of aminophylline at 100 mg/kg; assay type: functional
[23] = system: Rattus norvegicus; assay: Oral antiallergic activity in rat passive foot anaphylaxis (PFA) assay as percent change in volume of foot edema at a dose 31.6 mg/kg compared to -77% of aminophylline at 100 mg/kg; assay type: functional
[24] = system: Cavia porcellus; assay: Oral antiallergic activity in the Guinea Pig Anaphylaxis (GPA) at the dose of 31.6 mg/kg; 6 guinea pigs were challenged with the antigen; assay type: functional
[25] = system: Rattus norvegicus; assay: Oral antiallergic activity in rat passive foot anaphylaxis (PFA) assay as percent change in volume of foot edema at a dose 31.6 mg/kg compared to -80% of aminophylline at 100 mg/kg; assay type: functional
[26] = system: Rattus norvegicus; assay: Oral antiallergic activity in rat passive foot anaphylaxis (PFA) assay as percent change in volume of foot edema at a dose 31.6 mg/kg compared to -76% of aminophylline at 100 mg/kg; assay type: functional
[27] = system: Rattus norvegicus; assay: Oral antiallergic activity in rat passive foot anaphylaxis (PFA) assay as percent change in volume of foot edema at a dose 31.6 mg/kg compared to -64% of aminophylline at 100 mg/kg; assay type: functional
[28] = system: Cavia porcellus; assay: Oral antiallergic activity in the Guinea Pig Anaphylaxis (GPA) at the dose of 200 mg/kg; 3 guinea pigs were challenged with the antigen; assay type: functional
[29] = system: Rattus norvegicus; assay: Oral antiallergic activity in rat passive foot anaphylaxis (PFA) assay as percent change in volume of foot edema at a dose 31.6 mg/kg compared to -60% of aminophylline at 100 mg/kg; assay type: functional
[30] = system: Rattus norvegicus; assay: Oral antiallergic activity in rat passive foot anaphylaxis (PFA) assay as percent change in volume of foot edema at a dose 31.6 mg/kg compared to -79% of aminophylline at 100 mg/kg; assay type: functional
[31] = system: Rattus norvegicus; assay: Oral antiallergic activity in rat passive foot anaphylaxis (PFA) assay as percent change in volume of foot edema at a dose 31.6 mg/kg compared to -90% of aminophylline at 100 mg/kg; assay type: functional

## COc1cc(N2CCN(C(=O)NCCN(C)C)CC2)cc(OC)c1OC
[1]
  Change: 9%

## CN(C)CCNC(=O)N1CCN(c2ccccc2Cl)CC1
[2]
  Change: -53%
[3]
  Change: -16%

## CN(C)CCNC(=O)N1CCN(c2ccccn2)CC1
[2]
  Change: -54%
[3]
  Change: -13%

## CCOC(=O)c1ccc(N2CCN(C(=O)NCCN(C)C)CC2)cc1
[4]
  Change: -5%

## CN(C)CCNC(=O)N1CCN(Cc2ccccc2)CC1
[5]
  Change: -10%

## NC(=O)N1CCN(c2ccccc2)CC1
[6]
  Change: 10%

## O=C(NCCN1CCOCC1)N1CCN(c2ccccc2)CC1
[6]
  Change: 10%

## COc1ccccc1N1CCN(C(=O)NCCN(C)C)CC1
[6]
  Change: -21%

## CN(C)CCNC(=O)N1CCN(c2ccc(Cl)c(Cl)c2)CC1
[7]
  Change: -17%

## CN(C)CCNC(=O)N1CCN(C(c2ccccc2)c2ccccc2)CC1
[8]
  Change: -30%

## CN(C)CCNC(=O)N1CCN(c2ccc([N+](=O)[O-])cc2)CC1
[9]
  Change: -26%

## CN(C)CCNC(=O)N1CCN(c2cccc(C(F)(F)F)c2)CC1
[10]
  Change: -18%

## CN(C)CCOC(c1ccccc1)c1ccccc1 [DIPHENHYDRAMINE]
[11]
  No. of guinea pigs protected: 1

## CN(C)CCNC(=O)N1CCN(c2ccccc2F)CC1
[12]
  Change: -37%

## CN(C)CCNC(=O)N1CCN(c2ccc(Cl)cc2)CC1
[2]
  Change: -61%
[13]
  Change: -48%
[11]
  No. of guinea pigs protected: 0
[1]
  Change: 27%

## CC(=O)Nc1ccc(N2CCN(C(=O)NCCN(C)C)CC2)cc1
[6]
  Change: 5%

## CN(C)CCNC(=O)N1CCN(c2ccc(N)cc2)CC1
[5]
  Change: -22%

## Cc1ccc(N2CCN(C(=O)NCCN(C)C)CC2)cc1
[2]
  Change: -46%

## CN1CCN(CCCNC(=O)N2CCN(c3ccccc3)CC2)CC1
[14]
  Change: -23%

## COc1cccc(N2CCN(C(=O)NCCN(C)C)CC2)c1
[2]
  Change: -67%
[13]
  Change: -36%

## COc1ccc(N2CCN(C(=O)NCCN(C)C)CC2)cc1OC
[15]
  Change: -16%

## COc1ccc(N2CCN(C(=O)NCCN(C)C)CC2)cc1
[2]
  Change: -49%
[3]
  Change: -29%

## CC(=O)c1ccc(N2CCN(C(=O)NCCN(C)C)CC2)cc1
[16]
  Change: -25%

## CCN1CCCC(NC(=O)N2CCN(c3ccccc3)CC2)C1 (configuration not stated)
[14]
  Change: -58%

## CN(C)CCNC(=O)N1CCN(c2cccc(Cl)c2)CC1
[17]
  Change: -32%
[18]
  Change: -78%

## CN(C)CCNC(=O)N1CCN(c2ccc(F)cc2)CC1
[19]
  Change: -63%
[18]
  Change: -87%
[20]
  No. of guinea pigs protected: 1
[21]
  Change: -35%

## CN(C)C(=O)N1CCN(c2ccccc2)CC1
[16]
  Change: -24%

## O=C(NCCN1CCCCC1)N1CCN(c2ccccc2)CC1
[12]
  Change: -49%

## O=C(NCCCN1CCOCC1)N1CCN(c2ccccc2)CC1
[22]
  Change: -28%

## CN(C)CCNC(=O)N1CCN(c2ccc(N(C)C)cc2)CC1
[23]
  Change: -29%

## Cn1c(=O)c2[nH]cnc2n(C)c1=O.Cn1c(=O)c2[nH]cnc2n(C)c1=O.NCCN [AMINOPHYLLINE]
[24]
  No. of guinea pigs protected: 4

## O=C(NCCc1ccccn1)N1CCN(c2ccccc2)CC1
[6]
  Change: -3%

## CN(C)CCNC(=O)N1CCN(c2ccc(C#N)cc2)CC1
[25]
  Change: -31%

## O=C(N1CCN(c2ccccc2)CC1)N1CCN(c2ccccc2)CC1
[22]
  Change: -10%

## CN(CCNC(=O)N1CCN(c2ccccc2)CC1)Cc1ccccc1
[7]
  Change: -35%

## O=C(NCCN1CCCCCC1)N1CCN(c2ccccc2)CC1
[26]
  Change: -47%

## CN(C)CCCNC(=O)N1CCN(c2ccccc2)CC1
[6]
  Change: -13%

## O=C(NCCN1CCCC1)N1CCN(c2ccccc2)CC1
[12]
  Change: -45%

## CN1CCN(C(=O)N2CCN(c3ccccc3)CC2)CC1
[12]
  Change: -7%

## CN(C)CCNC(=O)N1CCN(c2cccc(F)c2)CC1
[27]
  Change: -31%

## CN(C)CCNC(=O)N1CCN(c2ccc(C(N)=O)cc2)CC1
[25]
  Change: 0%

## CCN(CC)C(=O)N1CCN(C)CC1 [DIETHYLCARBAMAZINE]
[28]
  No. of guinea pigs protected: 0

## CN(C)CCNC(=O)N1CCN(C(=O)c2ccccc2)CC1
[16]
  Change: -4%

## CN(CCNC(=O)N1CCN(c2ccccc2)CC1)c1ccccc1
[15]
  Change: -41%

## CCN(CC)CCNC(=O)N1CCN(c2ccccc2)CC1
[29]
  Change: -47%

## CN(C)CCNC(=O)N(C)CCN(C)c1ccccc1
[30]
  Change: -23%

## CN(C)CCN(C)C(=O)N1CCN(c2ccccc2)CC1
[2]
  Change: -38%

## CN(C)CCNC(=O)N1CCN(c2ccccc2)CC1
[3]
  Change: -22%
[31]
  Change: -68%

## CN1CCN(CCNC(=O)N2CCN(c3ccccc3)CC2)CC1
[15]
  Change: -7%

## CN(C)CCNC(=O)N1CCN(c2ccc(Br)cc2)CC1
[10]
  Change: -31%
